Among the data in US8889712B2, “IAP antagonists” (Bristol-Myers Squibb Company, priority 2012, dated 2014) are IC50 values, retold here.

The target in assay [1] is T1, XIAP BIR3 (Homo sapiens, UniProt P98170).
T1 construct: His-BIR3 (241-356, XIAP)
As to the kind of experiment: XIAP-BIR3/SMAC Homogeneous Time Resolved Fluorescence (HTRF) Assay. The format is binding. As to the method:
A. XIAP-BIR3/SMAC Homogeneous Time Resolved Fluorescence (HTRF) Assay Assays were performed in black, flat-bottom, 384-well plates. […] The reaction was incubated at room temperature for 60 minutes, following which 10 μl of mouse anti-6×His-terbium labeled Fab (Medarex, Cis-bio) was added to the reaction (40 μl) for an additional 30 minute incubation. […] Compounds were dissolved at 3 mM in dimethylsulfoxide (DMSO) and evaluated at eleven serially diluted concentrations. IC50 and Ki values were derived by non-linear regression analysis.
A general note: Time-resolved FRET reads energy transfer from a long-lived donor to a nearby acceptor.

In assay [2] the target is T2, XIAP BIR2-3 (Homo sapiens, UniProt P98170, C202A/C213G).
T2 construct: His-BIR2-3 (125-356, C202A/C213G, XIAP)
T2 sequence (P98170 125-356 C202A/C213G): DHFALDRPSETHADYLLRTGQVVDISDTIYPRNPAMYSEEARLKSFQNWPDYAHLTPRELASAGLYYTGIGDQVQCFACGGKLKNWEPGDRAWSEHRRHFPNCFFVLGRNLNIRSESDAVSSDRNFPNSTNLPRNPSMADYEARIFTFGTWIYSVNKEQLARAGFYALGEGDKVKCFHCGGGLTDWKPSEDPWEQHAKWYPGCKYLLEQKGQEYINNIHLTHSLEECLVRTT
Nature of the assay: XIAP-BIR2-3 dimeric SMAC Peptide Homogeneous Time Resolved Fluorescence (HTRF) Assay. The format is binding. The protocol:
B. […] Assays were performed in black, flat-bottom, 384-well plates. […] Compounds were dissolved at 3 mM in dimethylsulfoxide (DMSO) and evaluated at eleven serially diluted concentrations. IC50 and Ki values were derived by non-linear regression analysis.

Setting [3] is: 1 nM N-His-BIR3 (241-356, XIAP), 5 nM fluorescein labeled SMAC peptide, HTRF signal, read-out: XIAP BIR3 IC50.
The mark [4] stands for this setting: 0.5 nM N-His-BIR2-3 (125-356, C202A/C213G, XIAP), 20 nM fluorescein labeled dimeric SMAC peptide, HTRF signal, read-out: XIAP BIR2-3 IC50.

Read-outs that look alike come from different tables or passages of the source.

T1 sequence (P98170 241-356): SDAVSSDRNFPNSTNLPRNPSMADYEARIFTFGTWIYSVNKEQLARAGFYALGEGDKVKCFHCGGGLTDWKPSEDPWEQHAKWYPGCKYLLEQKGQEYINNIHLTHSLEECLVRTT

For orientation: IC50 means the concentration that gives 50% inhibition. Regarding `CN[C@@H](C)C(=O)N[C@H](C(=O)N1CC(c2ccc3c(c2)CN(C(=O)[C@@H](NC(=O)[C@H](C)NC)C(C)(C)C)[C@H](C(=O)NC2CCCc4ccccc42)C3)C[C@H]1C(=O)NC(Cc1ccccc1)C(=O)NCc1ccc(OC)cc1)C(C)(C)C` (stereo in doubt) [Example 70, (S)-2-((S)-3,3-Dimethyl-2-((S)-2-(methylamino)propanamido)butanoyl)-7-((3S,5S)-1-((S)-3,3-dimethyl-2-((S)-2-(methylamino)propanamido)butanoyl)-5-(((S)-1-((4-methoxybenzyl)amino)-1-oxo-3-phenylpropan-2-yl)carbamoyl)pyrrolidin-3-yl)-N-((R)-1,2,3,4-tetrahydronaphthalen-1-yl)-1,2,3,4-tetrahydroisoquinoline-3-carboxamide], the results for the half-maximal inhibitory concentration (IC50) in assay [1] (setting [3]) and in assay [2] (setting [4]) were 8.9 nM and 2.2 nM, respectively.
Take `CN[C@@H](C)C(=O)N[C@H](C(=O)N1CC(c2ccc3c(c2)CN(C(=O)[C@@H](NC(=O)[C@H](C)NC)C(C)(C)C)[C@H](C(=O)NC2CCCc4ccccc42)C3)C[C@H]1C(=O)NC(Cc1ccccc1)C(=O)Nc1ccc(F)cc1)C(C)(C)C` (stereo in doubt) [Example 71, (S)-2-((S)-3,3-Dimethyl-2-((S)-2-(methylamino)propanamido)butanoyl)-7-((3S,5S)-1-((S)-3,3-dimethyl-2-((S)-2-(methylamino)propanamido)butanoyl)-5-(((S)-1-((4-fluorophenyl)amino)-1-oxo-3-phenylpropan-2-yl)carbamoyl)pyrrolidin-3-yl)-N-((R)-1,2,3,4-tetrahydronaphthalen-1-yl)-1,2,3,4-tetrahydroisoquinoline-3-carboxamide]: the IC50 in assay [1] (setting [3]) is 5.6 nM; in assay [2] (setting [4]) it was 1.5 nM.
The like results for `CN[C@@H](C)C(=O)N[C@H](C(=O)N1CC(c2ccc3c(c2)CN(C(=O)[C@@H](NC(=O)[C@H](C)NC)C(C)(C)C)[C@H](C(=O)NC2CCCc4ccccc42)C3)C[C@H]1C(=O)NC(Cc1ccccc1)C(=O)N(C)Cc1ccccc1)C(C)(C)C` (stereo in doubt) [Example 72, (S)-7-((3S,5S)-5-(((S)-1-(Benzyl(methyl)amino)-1-oxo-3-phenylpropan-2-yl)carbamoyl)-1-((S)-3,3-dimethyl-2-((S)-2-(methylamino)propanamido)butanoyl)pyrrolidin-3-yl)-2-((S)-3,3-dimethyl-2-((S)-2-(methylamino)propanamido)butanoyl)-N-((R)-1,2,3,4-tetrahydronaphthalen-1-yl)-1,2,3,4-tetrahydroisoquinoline-3-carboxamide] were, in that order, 16.5 nM and 3.3 nM.
With `CN[C@@H](C)C(=O)N[C@H](C(=O)N1Cc2cc(C3C[C@@H](C(=O)N[C@H](CO)Cc4ccccc4)N(C(=O)[C@@H](NC(=O)[C@H](C)NC)C(C)(C)C)C3)ccc2C[C@H]1C(=O)NC1CCCc2ccccc21)C(C)(C)C` (stereo in doubt) [Example 74, (S)-2-((S)-3,3-Dimethyl-2-((S)-2-(methylamino)propanamido)butanoyl)-7-((3S,5S)-1-((S)-3,3-dimethyl-2-((S)-2-(methylamino)propanamido)butanoyl)-5-(((S)-1-hydroxy-3-phenylpropan-2-yl)carbamoyl)pyrrolidin-3-yl)-N-((R)-1,2,3,4-tetrahydronaphthalen-1-yl)-1,2,3,4-tetrahydroisoquinoline-3-carboxamide], the IC50 in assay [1] (setting [3]) is 13.6 nM; in assay [2] (setting [4]), 2.6 nM.
On to `CN[C@@H](C)C(=O)N[C@H](C(=O)N1Cc2cc(C(=O)N[C@H]3C[C@@H](C(=O)N[C@@H]4CCCc5ccccc54)N(C(=O)[C@@H](NC(=O)[C@H](C)NC)C(C)(C)C)C3)ccc2C[C@H]1C(=O)N[C@@H]1CCCc2ccccc21)C(C)(C)C` [Example 1, (S)-2-((S)-3,3-Dimethyl-2-((S)-2-(methylamino)propanamido)butanoyl)-N^7-((3S,5S)-1-((S)-3,3-dimethyl-2-((S)-2-(methylamino)propanamido)butanoyl)-5-(((R)-1,2,3,4-tetrahydronaphthalen-1-yl)carbamoyl)pyrrolidin-3-yl)-N^3—((R)-1,2,3,4-tetrahydronaphthalen-1-yl)-1,2,3,4-tetrahydroisoquinoline-3,7-dicarboxamide], for which the IC50 came to 11 nM in assay [1] and 3 nM in assay [2].
As for `CCN[C@@H](C)C(=O)N[C@H](C(=O)N1Cc2cc(C(=O)N[C@H]3C[C@@H](C(=O)NC4CCCc5ccccc54)N(C(=O)[C@@H](NC(=O)[C@H](C)NC)C(C)(C)C)C3)ccc2C[C@H]1C(=O)NC1CCCc2ccccc21)C(C)(C)C` (stereo partly drawn) [Example 2], the IC50 was 9 nM in assay [1] (setting [3]) and 6 nM in assay [2] (setting [4]).
The like results for `CC[C@H](NC)C(=O)N[C@H](C(=O)N1Cc2cc(C(=O)N[C@H]3C[C@@H](C(=O)N[C@@H]4CCCc5ccccc54)N(C(=O)[C@@H](NC(=O)[C@H](C)NC)C(C)(C)C)C3)ccc2C[C@H]1C(=O)N[C@@H]1CCCc2ccccc21)C(C)(C)C` [Example 3, (S)-2-((S)-3,3-Dimethyl-2-((S)-2-(methylamino)butanamido)butanoyl)-N^7-((3S,5S)-1-((S)-3,3-dimethyl-2-((S)-2-(methylamino)propanamido)butanoyl)-5-(((R)-1,2,3,4-tetrahydronaphthalen-1-yl)carbamoyl)pyrrolidin-3-yl)-N^3-((R)-1,2,3,4-tetrahydronaphthalen-1-yl)-1,2,3,4-tetrahydroisoquinoline-3,7-dicarboxamide] were, in that order, 6 nM and 3 nM.
On the same counts, the results for `CN[C@@H](C)C(=O)N[C@H](C(=O)N1C[C@@H](NC(=O)c2ccc3c(c2)CN(C(=O)[C@@H](NC(=O)[C@@H](NC)C(C)C)C(C)(C)C)[C@H](C(=O)N[C@@H]2CCCc4ccccc42)C3)C[C@H]1C(=O)N[C@@H]1CCCc2ccccc21)C(C)(C)C` [Example 4, (S)-N^7-((3S,5S)-1-((S)-3,3-Dimethyl-2-((S)-2-(methylamino)propanamido)butanoyl)-5-(((R)-1,2,3,4-tetrahydronaphthalen-1-yl)carbamoyl)pyrrolidin-3-yl)-2-((S)-3,3-dimethyl-2-((S)-3-methyl-2-(methylamino)butanamido)butanoyl)-N^3-((R)-1,2,3,4-tetrahydronaphthalen-1-yl)-1,2,3,4-tetrahydroisoquinoline-3,7-dicarboxamide] are 10 nM and 11 nM.
On the same counts, the results for `CN[C@@H](C)C(=O)N[C@H](C(=O)N1C[C@@H](NC(=O)c2ccc3c(c2)CN(C(=O)[C@@H](NC(=O)[C@@H](NC)C2CC2)C(C)(C)C)[C@H](C(=O)N[C@@H]2CCCc4ccccc42)C3)C[C@H]1C(=O)N[C@@H]1CCCc2ccccc21)C(C)(C)C` [Example 5, (S)-2-((S)-2-((S)-2-Cyclopropyl-2-(methylamino)acetamido)-3,3-dimethylbutanoyl)-N^7-((3S,5S)-1-((S)-3,3-dimethyl-2-((S)-2-(methylamino)propanamido)butanoyl)-5-(((R)-1,2,3,4-tetrahydronaphthalen-1-yl)carbamoyl)pyrrolidin-3-yl)-N^3-((R)-1,2,3,4-tetrahydronaphthalen-1-yl)-1,2,3,4-tetrahydroisoquinoline-3,7-dicarboxamide] are 14 nM and 13 nM.
